According to patent US10251902B2, “Pharmaceutical composition for treating or preventing neuropsychiatric disease, containing flavone-6-C-glucose derivatives as active ingredients” (priority 2013, dated 2019):

Legend:
[1] = system: model of memory impairment induced by scopolamine; experiment: Passive avoidance test in scopolamine-induced memory impairment model; format: in vivo, ICR mice; conditions: for Main Experiment / Passive Avoidance Learning: Table 2, scopolamine 1 mg/Kg i.p.; for Main Experiment: latency 24 h after learning, up to 300 seconds; for Passive Avoidance Learning: latency in learning trial; for latency time extended compared to that of the control 2: main experiment, control 2 = scopolamine
Experimental: (§1) An experiment was conducted to confirm effects of swertisin or isoorientin, and extracts of Swertia pseudochinensis or Swertia japonica containing the same prepared in Examples 1 to 3 in treating dementia by using a model of memory impairment induced by scopolamine. Detailed method follows.
(§2) Six-week old ICR mice in about 26 g to 28 g (Orientbio Inc, Republic of Korea) were received water and feed without constraint and adapted for 5 days under an environment having about 23±1° C. of temperature, about 60±10% of humidity and 12-hour light/dark cycle (animal laboratory at College of Pharmacy, Kyung-Hee University), and then used for the experiment.
An apparatus for measuring passive avoidance reaction was prepared. The apparatus has 2 separated chambers (the first and second chambers) and there is a guillotine-shaped passage that connects the first chamber and the second chamber. The first chamber was maintained brightly by using a light, and the second chamber was maintained darkly. A grid was installed on the floor of the second chamber. The grid generates 0.5 mA of electric shock for 3 seconds when the laboratory animal moved into the dark chamber.
About 30 minutes later, 1 mg/Kg of scopolamine, which was dissolved in distilled water, was intraperitoneally administered to the drug administration groups 1 to 4 and controls 1 and 2 (Ebert, U. et al., Eur. J. Clin. Invest., 28, pp 944-949, 1998), and 0.9% of saline solution was intraperitoneally administered to the control 3. After 30 minutes, passive avoidance learning was conducted on the drug administration groups 1-4 and controls 1-3. In detail, the mice were located in the first chamber (i.e. bright space) and the passage was open after about 20 seconds of observation time, and then latency time of the mice moving to the second chamber (i.e. dark space) was measured.
Twenty-four hours after the passive avoidance learning, a main experiment was conducted on the drug administration groups 1-4 and controls 1-3. Latency time of the mice of each group moving their 4 legs into the dark space after 10 seconds of observation time from opening of the guillotine-shaped passage was measured up to 300 seconds. It means that the passive avoidance learning and memory are better if the latency time is longer.
(§3) The passive avoidance test was conducted on the drug administration groups 1-4 and controls 1-3 in the same manner as the method explained above except that swertisin, which is one of the flavone-6-C-β-D-glucose derivatives prepared in Example 3, was dissolved in 10% Tween 80 and administered to the drug administration groups 1-4 in amounts of 1.25 mg/kg, 2.5 mg/kg, 5 mg/kg and 10 mg/kg respectively.
as §3, with “Experimental Example 1-1” for “the method explained above”, “isoorientin,” for “swertisin,”
(§4) The passive avoidance test was conducted on the drug administration groups 1-3 and controls 1-3 in the same manner as Experimental Example 1-1 except that a 70% ethanol extract of Swertia japonica prepared in Example 1, was dissolved in 10% Tween and administered to the drug administration groups 1-3 in amounts of 100 mg/kg, 200 mg/kg and 400 mg/kg respectively.
as §4, with “pseudochinensis” for “japonica”, “2,” for “1,”, “Tween 80” for “Tween”

[2] = system: model of memory impairment induced by scopolamine; experiment: Y-maze test in scopolamine-treated mice; format: in vivo, ICR mice; conditions: scopolamine 1 mg/Kg i.p.; for Alternation Behavior (%): Table 6, 8 minutes in Y-maze; for Total Entry: Table 7, total number of entry to each branch, 8 minutes
Experimental: as §1, §2
A Y-maze was prepared for the experiment. The Y-maze has 3 branches and each branch has 42 cm of length, 3 cm of width and 12 cm of height. Angle between any two arms is 120 degrees and the arms were made of black polyvinyl resin.
The mice prepared in the above 1) were separated into 5 groups (10 mice per each group) comprised of drug administration groups 1 and 2, and controls 1 to 3.
The swertisin prepared in Example 3 (8 mg) was dissolved in 4 mL of 10% Tween 80 (Polyoxyethylene sorbitan monooleate: Sigma, U.S.A.), and administered to the drug administration groups 1 and 2 in an amounts of 5 mg/Kg and 10 mg/Kg respectively. Meanwhile, 5 mg/Kg of donepezil was administered to the control 1, and 0.15 mL of 10% Tween 80 was administered to the controls 2 and 3 respectively.
About 30 minutes later, 1 mg/Kg of scopolamine, which was dissolved in distilled water, was intraperitoneally administered to the drug administration groups 1 and 2, and controls 1 and 2 (Ebert, U. et al., Eur. J. Clin. Invest., 28, pp. 944-949, 1998), and 0.9% of saline solution was intraperitoneally administered to the control 3.
After 30 minutes, mice of the drug administration groups 1 and 2, and the controls 1-3 were carefully located on each branches of the Y-maze, which was divided as A, B and C respectively, and let the mice move freely for 8 minutes, and then recorded branches where mice have entered. The entrance was recorded when the entire body (i.e. including the tail) has completely entered. It was also recorded when the mice entered again into the branch that the mice have entered before.
One point was scored when the mouse sequentially entered into 3 different branches (actual alternation). Alternation behavior is defined as sequentially entering into every 3 branch, and it was converted into % via Equation 1 below (Sarter, M. et al., Psychopharmacology., 94, pp. 491-495, […]).

COc1cc2oc(-c3ccc(O)cc3)cc(=O)c2c(O)c1[C@@H]1O[C@H](CO)[C@@H](O)[C@H](O)[C@H]1O [swertisin]
Main Experiment ([1]; swertisin 1.25 mg/kg): 67.13 ± 26.08 s | Passive Avoidance Learning ([1]; swertisin 1.25 mg/kg): 30.20 ± 14.53 s | Main Experiment ([1]; swertisin 2.5 mg/kg): 82.11 ± 35.20 s | Passive Avoidance Learning ([1]; swertisin 2.5 mg/kg): 19.10 ± 10.37 s | Main Experiment ([1]; swertisin 5 mg/kg): 117.3 ± 44.16 s | Passive Avoidance Learning ([1]; swertisin 5 mg/kg): 20.40 ± 10.11 s | Main Experiment ([1]; swertisin 10 mg/kg): 117.7 ± 52.28 s | Passive Avoidance Learning ([1]; swertisin 10 mg/kg): 29.70 ± 18.76 s | latency time extended compared to that of the control 2 ([1]; swertisin 1.25 mg/Kg): about 2 fold | latency time extended compared to that of the control 2 ([1]; swertisin 2.5 mg/Kg): about 2.5 fold | latency time extended compared to that of the control 2 ([1]; swertisin 5 mg/Kg): about 3 fold | latency time extended compared to that of the control 2 ([1]; swertisin 10 mg/Kg): about 3 fold | Alternation Behavior (%) ([2]; swertisin 5 mg/kg): 56.22 ± 12.29% | Alternation Behavior (%) ([2]; swertisin 10 mg/kg): 59.36 ± 5.653% | Total Entry ([2]; swertisin 5 mg/kg): 27.10 ± 7.795 | Total Entry ([2]; swertisin 10 mg/kg): 28.88 ± 4.155
